{"source": "ChEMBL document CHEMBL1143809", "about": "“New bis-N9-(methylphenylmethyl)purine derivatives: synthesis and antitumor activity” (2007)", "assay_type_in_all_cases": "functional", "key": {"[1]": {"tested_on": "SNB-19", "experiment": "Growth inhibition of human SNB19 cells after 48 hrs by SRB protein assay", "details": "SNB-19, 48 h"}, "[2]": {"tested_on": "UO-31", "experiment": "Growth inhibition of human UO31 cells after 48 hrs by SRB protein assay", "details": "UO-31, 48 h"}, "[3]": {"tested_on": "MDA-MB-231", "experiment": "Growth inhibition of human MDA-MB-231 cells after 48 hrs by SRB protein assay", "details": "MDA-MB-231, 48 h"}, "[4]": {"tested_on": "786-0", "experiment": "Growth inhibition of human 786-0 cells after 48 hrs by SRB protein assay", "details": "786-0, 48 h"}, "[5]": {"tested_on": "A498", "experiment": "Growth inhibition of human A498 cells after 48 hrs by SRB protein assay", "details": "A498, 48 h"}, "[6]": {"tested_on": "SF-295", "experiment": "Growth inhibition of human SF295 cells after 48 hrs by SRB protein assay", "details": "SF-295, 48 h"}, "[7]": {"tested_on": "MCF7", "experiment": "Growth inhibition of human MCF7 cells after 48 hrs by SRB protein assay", "details": "MCF7, 48 h"}, "[8]": {"tested_on": "SN12C", "experiment": "Growth inhibition of human SN12C cells after 48 hrs by SRB protein assay"}, "[9]": {"tested_on": "T47D", "experiment": "Growth inhibition of human T47D cells after 48 hrs by SRB protein assay"}, "[10]": {"tested_on": "SK-MEL-2", "experiment": "Growth inhibition of human SK-MEL-2 cells after 48 hrs by SRB protein assay", "details": "SK-MEL-2, 48 h"}, "[11]": {"experiment": "Growth inhibition of human NCL-H522 cells after 48 hrs by SRB protein assay", "details": "NCL-H522, 48 h"}, "[12]": {"tested_on": "KM12", "experiment": "Growth inhibition of human KM12 cells after 48 hrs by SRB protein assay", "details": "KM12, 48 h"}, "[13]": {"tested_on": "HCT-15", "experiment": "Growth inhibition of human HCT15 cells after 48 hrs by SRB protein assay", "details": "HCT-15, 48 h"}, "[14]": {"tested_on": "DU-145", "experiment": "Growth inhibition of human DU145 cells after 48 hrs by SRB protein assay", "details": "DU-145, 48 h"}, "[15]": {"tested_on": "HCC 2998", "experiment": "Growth inhibition of human HCC2998 cells after 48 hrs by SRB protein assay", "details": "HCC 2998, 48 h"}, "[16]": {"tested_on": "M14", "experiment": "Growth inhibition of human M14 cells after 48 hrs by SRB protein assay", "details": "M14, 48 h"}, "[17]": {"tested_on": "RPMI-8226", "experiment": "Growth inhibition of human RPMI8226 cells after 48 hrs by SRB protein assay", "details": "RPMI-8226, 48 h"}, "[18]": {"tested_on": "OVCAR-5", "experiment": "Growth inhibition of human OVCAR5 cells after 48 hrs by SRB protein assay", "details": "OVCAR-5, 48 h"}, "[19]": {"tested_on": "NCI-H460", "experiment": "Anticancer activity against human NCL-H460 cells assessed as growth at 100 uM after 48 hrs by SRB protein assay relative to control", "details": "NCI-H460, 48 h, read-out: Activity"}, "[20]": {"tested_on": "HT-29", "experiment": "Growth inhibition of human HT29 cells after 48 hrs by SRB protein assay", "details": "HT-29, 48 h"}, "[21]": {"experiment": "Growth inhibition of human NCL-H226 cells after 48 hrs by SRB protein assay", "details": "NCL-H226, 48 h"}, "[22]": {"tested_on": "Hs-578T", "experiment": "Growth inhibition of human HS578T cells after 48 hrs by SRB protein assay"}, "[23]": {"experiment": "Growth inhibition of human NCL-H322M cells after 48 hrs by SRB protein assay"}, "[24]": {"tested_on": "A549", "experiment": "Growth inhibition of human A549 cells after 48 hrs by SRB protein assay", "details": "A549, 48 h"}, "[25]": {"tested_on": "MDA-MB-435", "experiment": "Growth inhibition of human MDA-MB-435 cells after 48 hrs by SRB protein assay", "details": "MDA-MB-435, 48 h"}, "[26]": {"details": "read-out: LC50 (the source's name)"}}}
{"smiles": "Clc1nc(Cl)c2ncn(Cc3ccc(Cn4cnc5c(Cl)nc(Cl)nc54)cc3)c2n1", "values": [{"measurement": "TGI", "setting": "[1]", "value": 21.9, "unit": "µM"}, {"measurement": "CC50", "setting": "[1]; [26]", "value": 46.8, "unit": "µM"}, {"measurement": "GI50", "setting": "[2]", "value": 10, "unit": "µM"}, {"measurement": "LC50", "setting": "[2]", "value": 46.8, "unit": "µM"}, {"measurement": "TGI", "setting": "[2]", "value": 21.4, "unit": "µM"}, {"measurement": "LC50 (50% lethal concentration)", "setting": "[3]", "value": 46.8, "unit": "µM"}, {"measurement": "TGI", "setting": "[3]", "value": 21.9, "unit": "µM"}, {"measurement": "GI50", "setting": "[4]", "value": 14.5, "unit": "µM"}, {"measurement": "TGI", "setting": "[4]", "value": 27.5, "unit": "µM"}, {"measurement": "CC50", "setting": "[4]; [26]", "value": 52.5, "unit": "µM"}, {"measurement": "TGI", "setting": "[5]", "value": 22.9, "unit": "µM"}, {"measurement": "CC50", "setting": "[5]; [26]", "value": 47.9, "unit": "µM"}, {"measurement": "GI50", "setting": "[6]", "value": 19.1, "unit": "µM"}, {"measurement": "LC50", "setting": "[6]", "value": 85.1, "unit": "µM"}, {"measurement": "TGI", "setting": "[6]", "value": 40.7, "unit": "µM"}, {"measurement": "GI50", "setting": "[7]", "value": 10.5, "unit": "µM"}, {"measurement": "LC50", "setting": "[7]", "value": 61.7, "unit": "µM"}, {"measurement": "TGI", "setting": "[7]", "value": 25.1, "unit": "µM"}, {"measurement": "GI50", "setting": "[8]", "value": 14.1, "unit": "µM"}, {"measurement": "LC50", "setting": "[8]", "value": 52.5, "unit": "µM"}, {"measurement": "TGI", "setting": "[8]", "value": 27.5, "unit": "µM"}, {"measurement": "GI50", "setting": "[9]", "value": 1.62, "unit": "µM"}, {"measurement": "LC50", "setting": "[9]", "value": 42.6, "unit": "µM"}, {"measurement": "TGI", "setting": "[9]", "value": 13.5, "unit": "µM"}, {"measurement": "TGI", "setting": "[10]", "value": 23.4, "unit": "µM"}, {"measurement": "CC50", "setting": "[10]; [26]", "value": 49, "unit": "µM"}, {"measurement": "GI50", "setting": "[11]", "value": 12.3, "unit": "µM"}, {"measurement": "LC50", "setting": "[11]", "value": 52.5, "unit": "µM"}, {"measurement": "TGI", "setting": "[11]", "value": 25.7, "unit": "µM"}, {"measurement": "GI50", "setting": "[12]", "value": 14.1, "unit": "µM"}, {"measurement": "LC50 (concentration killing 50% of cells)", "setting": "[12]", "value": 52.5, "unit": "µM"}, {"measurement": "TGI", "setting": "[12]", "value": 27.5, "unit": "µM"}, {"measurement": "GI50", "setting": "[13]", "value": 13.2, "unit": "µM"}, {"measurement": "LC50", "setting": "[13]", "value": 51.3, "unit": "µM"}, {"measurement": "TGI", "setting": "[13]", "value": 25.7, "unit": "µM"}, {"measurement": "GI50", "setting": "[14]", "value": "< 0.01", "unit": "µM"}, {"measurement": "TGI", "setting": "[14]", "value": 4.16, "unit": "µM"}, {"measurement": "CC50", "setting": "[14]; [26]", "value": 26.3, "unit": "µM"}, {"measurement": "LC50", "setting": "[15]", "value": 50.1, "unit": "µM"}, {"measurement": "TGI", "setting": "[15]", "value": 25.1, "unit": "µM"}, {"measurement": "LC50", "setting": "[16]", "value": 52.5, "unit": "µM"}, {"measurement": "TGI", "setting": "[16]", "value": 27.5, "unit": "µM"}, {"measurement": "GI50", "setting": "[17]", "value": 6.45, "unit": "µM"}, {"measurement": "TGI", "setting": "[17]", "value": 25.1, "unit": "µM"}, {"measurement": "CC50", "setting": "[17]; [26]", "value": 75.9, "unit": "µM"}, {"measurement": "TGI", "setting": "[18]", "value": 26.3, "unit": "µM"}, {"measurement": "CC50", "setting": "[18]; [26]", "value": 51.3, "unit": "µM"}, {"measurement": "growth at 100 µM", "setting": "[19]", "value": 0, "unit": "%"}, {"measurement": "GI50", "setting": "[20]", "value": "< 0.01", "unit": "µM"}, {"measurement": "LC50", "setting": "[20]", "value": 39.8, "unit": "µM"}, {"measurement": "TGI", "setting": "[20]", "value": 15.8, "unit": "µM"}, {"measurement": "GI50", "setting": "[21]", "value": 17, "unit": "µM"}, {"measurement": "LC50", "setting": "[21]", "value": 93.3, "unit": "µM"}, {"measurement": "TGI", "setting": "[21]", "value": 39.8, "unit": "µM"}, {"measurement": "GI50", "setting": "[22]", "value": "< 0.01", "unit": "µM"}, {"measurement": "LC50 (concentration killing 50% of cells)", "setting": "[22]", "value": 43.6, "unit": "µM"}, {"measurement": "TGI", "setting": "[22]", "value": 16.2, "unit": "µM"}, {"measurement": "TGI", "setting": "[23]", "value": 33.9, "unit": "µM"}, {"measurement": "CC50", "setting": "[23]; [26]", "value": 91.2, "unit": "µM"}, {"measurement": "LC50", "setting": "[24]", "value": 50.1, "unit": "µM"}, {"measurement": "TGI", "setting": "[24]", "value": 25.1, "unit": "µM"}, {"measurement": "GI50", "setting": "[25]", "value": 16.6, "unit": "µM"}, {"measurement": "LC50", "setting": "[25]", "value": 61.7, "unit": "µM"}, {"measurement": "TGI", "setting": "[25]", "value": 31.6, "unit": "µM"}]}
